Source: patent US9162991B2 (University of Ottawa, priority 2007, dated 2015)
Where two headings read alike, the source gives them in different places.

Legend:
[1] = target: recombinant guinea pig liver TGase (Cavia cutleri (Guinea pig), UniProt P08587); assay: biochemical; format: biochemical
Method: ENZYME INHIBITION BY COMPOUNDS 14a-c, 14l, 15a, 15d-k, 15m-q, 30a, 30r, 30t, 37a and 38a: For enzymology studies of these compounds, recombinant guinea pig liver TGase was expressed in Escherichia coli and effectively purified (Gillet, S. M. F. G. et al J. N., Prot. Exp. & Purif. 2004, 33, 256).
The mode of inhibition was determined for the representative lead compound 14a through non-linear regression of initial rate data to the Michaelis-Menten equation (FIG. 1).
For the ensuing enzymatic tests, recombinant guinea pig liver TGase was expressed in E. Coli and effectively purified.
Kinetic runs were recorded on a Cary 100 BIO UV-Visible spectrophotometer at 405 nm and 25° C., in a buffer composed of 50 mM CaCl2, 50 μM EDTA and 0.1 M MOPS (pH 7.0). All aqueous solutions were prepared using de-ionized water purified from the Millipore BioCell system. […] Factor XIIIa activity was measured using a coupled-enzyme assay (Day, N.; Keillor, J. W. Anal. Biochem. 1999, 274, 141). Factor XIIIa, was added to a final concentration of 0.89 μg/mL to a pH 8.5 solution (0.1 M Tris-HCl, 5 mM CaCl2 and 10 mM DDT) of 0.5 mM β-NADH, 3.3 mM Na-acetyl-L-lysine methyl ester, 10 mM α-ketoglutaric acid sodium salt and 297 μg/mL glutamate dehydrogenase (GDH).

[2] = test system: tissue transglutaminase (TG2); assay: Cytochrome c (cytC) promoter/luciferase reporter assay in CHO cells; format: cell-based, Chinese Hamster; settings: 100 μM, CHO cells incubated 12 hours, luminescence of cell lysate
Description: IN VITRO STUDIES FOR COMPOUND 15a: A cytochrome c (cytC) promoter/luciferase reporter assay (illustrated in FIG. 6) was used to assess tissue transglutaminase (TG2) activity for compound 15a. In the absence of TG2, transcription factors bind to the cytC promoter region of the luciferase gene, and the level of expressed luciferase is detected from the luminescence of the Chinese Hamster Ovary (CHO) cell lysate (A). The level of effective cytC promoter is sensitive to endogenous TG2 co-expressed in CHO cells. High TG2 expression results in low promoter activity, presumably because the transcription factors that bind to the cytC promoter have Gln-rich sequences that are modified by TG2-mediated hydrolysis or transamidation (B). In the presence of TG2 inhibitors, TG2-induced silencing of the promoter is repressed and luciferase is detected in the lysate once more (C). In this assay, CHO cells are incubated in the presence of the inhibitor compound for 12 hours, after which the luminescence of cell lysate is measured, as an indication of the level of TG2 inhibition.

[3] = target: human caspase 3 (Homo sapiens (Human), UniProt P42574); assay: Caspase 3 activity, release of p-nitroaniline from Ac-Asp-Glu-Val-Asp-pNA; format: biochemical
human caspase 3, sequence (P42574 29-175): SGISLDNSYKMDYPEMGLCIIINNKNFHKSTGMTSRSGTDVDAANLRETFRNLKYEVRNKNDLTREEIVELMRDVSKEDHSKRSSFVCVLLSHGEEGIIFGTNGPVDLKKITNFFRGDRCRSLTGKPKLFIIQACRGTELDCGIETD
human caspase 3, sequence (P42574 176-277): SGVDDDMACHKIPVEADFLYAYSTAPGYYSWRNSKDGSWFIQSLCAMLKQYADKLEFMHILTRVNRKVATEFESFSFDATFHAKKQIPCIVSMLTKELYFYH
Description: To examine the enzyme selectivity of this new family of TG2 inhibitors, several representative compounds (14a, 15p, 18a, 28a and 30a) were further tested as inhibitors of related enzymes. For these studies, Factor XIIIa was chosen because it is a member of the family of transglutaminase enzymes and its inhibition in vivo may lead to compromised coagulation and toxicity. Caspase 3 was also chosen because as a cysteine protease, its acyl transfer mechanism is phenomenologically similar to that of TGase. At concentrations approaching the limits of their solubility, most of those compounds had no discernable effect on the activities of either of these enzymes (data not shown). […] This selectivity bodes well for in vivo application.
The subsequent absorbance decrease was followed at 340 nm at 37° C. Caspase 3 activity was measured by monitoring the release of p-nitroaniline (pNA) (λabs=405 nm) from the peptidic substrate Ac-Asp-Glu-Val-Asp-pNA (20 μM) catalyzed by human caspase 3 (Sigma, 250 ng/mL) at pH 7.4 (18.6 mM HEPES, 1.9 mM EDTA, 0.09% CHAPS and 4.7 mM DTT).

[4] = Table 1, substituent on the cinnamoyl aromatic group, read-out: IC50 (μM), class symbol
[5] = Table 1, value in brackets, read-out: IC50
[6] = Table 2, influence of the cinnamoyl double bond, read-out: IC50 (μM), class symbol
[7] = Table 2, value in brackets or words, read-out: IC50
[8] = Table 3, influence of the acylated moiety, read-out: IC50 (μM), class symbol
[9] = Table 3, value in brackets, read-out: IC50

recombinant guinea pig liver TGase, sequence (P08587 whole entry): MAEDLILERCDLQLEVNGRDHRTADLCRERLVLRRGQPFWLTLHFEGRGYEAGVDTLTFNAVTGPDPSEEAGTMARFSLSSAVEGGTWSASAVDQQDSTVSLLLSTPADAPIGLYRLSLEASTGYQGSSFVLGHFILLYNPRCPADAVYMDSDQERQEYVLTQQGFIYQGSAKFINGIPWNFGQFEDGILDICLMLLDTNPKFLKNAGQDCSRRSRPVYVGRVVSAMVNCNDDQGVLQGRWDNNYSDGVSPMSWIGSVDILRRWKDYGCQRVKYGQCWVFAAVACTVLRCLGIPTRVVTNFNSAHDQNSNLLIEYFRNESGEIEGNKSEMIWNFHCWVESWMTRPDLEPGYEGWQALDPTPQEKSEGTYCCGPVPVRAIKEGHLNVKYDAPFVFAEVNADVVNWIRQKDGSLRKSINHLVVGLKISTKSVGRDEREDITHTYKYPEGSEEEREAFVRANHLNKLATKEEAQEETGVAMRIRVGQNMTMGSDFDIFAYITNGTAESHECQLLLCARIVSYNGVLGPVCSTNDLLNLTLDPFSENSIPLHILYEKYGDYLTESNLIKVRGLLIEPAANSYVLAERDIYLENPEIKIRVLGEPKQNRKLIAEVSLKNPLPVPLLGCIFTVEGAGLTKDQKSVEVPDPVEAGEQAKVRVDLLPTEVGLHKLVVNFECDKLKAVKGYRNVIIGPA

Structure (SMILES): O=C(/C=C/c1ccc([N+](=O)[O-])cc1)n1nnc2ccccc21 [Compound 15a, p-Nitrocinnamoyl benzotriazolyl amide]
- TGase inhibitory activity (in words) [1]: Inhibitory activity was observed
- IC50 [1, 4]: > 50 µM
- IC50 [1, 5]: 74 µM
- IC50 [1, 6]: > 50 µM
- IC50 [1, 7]: 74 µM
- IC50 [1, 8]: > 50 µM
- inhibition of TG2-mediated silencing of cytC promoter [2]: complete inhibition

Structure (SMILES): O=C(/C=C/c1ccc([N+](=O)[O-])cc1)Nc1ccccc1 [Compound 22a, p-Nitrocinnamoyl phenyl amide]
- IC50 [1, 8]: > 50 µM

Structure (SMILES): O=C(/C=C/c1ccc([N+](=O)[O-])cc1)Nc1cccc2ccccc12 [Compound 23a, p-Nitrocinnamoyl naphtalenyl amide]
- IC50 [1, 8]: > 50 µM
- IC50 [1, 9]: > 200 µM

Structure (SMILES): O=C(/C=C/c1ccc([N+](=O)[O-])cc1)N1CCCCC1 [Compound 24a, p-Nitrocinnamoyl piperidinyl amide]
- IC50 [1]: > 50 µM

Structure (SMILES): O=C(/C=C/c1ccc([N+](=O)[O-])cc1)N1CCc2ccccc21 [Compound 25a, p-Nitrocinnamoyl indolinyl amide]
- IC50 [1, 8]: > 50 µM

Structure (SMILES): O=C(C=Cc1ccc([N+](=O)[O-])cc1)N(Cc1ccccc1)Cc1ccccc1 [Compound 26a, p-Nitrocinnamoyl dibenzyl amide]
- IC50 [1, 8]: 20 to 50 µM
- IC50 [1, 9]: 57 µM
- IC50 ([1]; read-out: IC50): 57 µM

Structure (SMILES): CN(Cc1ccccc1)C(=O)/C=C/c1ccc([N+](=O)[O-])cc1 [Compound 27a, p-Nitrocinnamoyl methylbenzyl amide]
- IC50 [1, 8]: > 50 µM

Structure (SMILES): O=C(/C=C/c1ccc([N+](=O)[O-])cc1)c1cc2ccccc2oc1=O [Compound 28a, 3-((E)-3-(4-Nitrophenyl)acryloyl)-2H-chromen-2-one]
- IC50 [1, 8]: 20 to 50 µM
- IC50 [1, 9]: 48 µM
- IC50 ([1]; read-out: IC50): 48 µM
- inhibition at 6 µM ([3]; at 6 μM): 28%
- effect on caspase 3 activity ([3]; at concentrations approaching the limits of solubility): slight inhibitory activity

Structure (SMILES): O=C(/C=C/c1ccc([N+](=O)[O-])cc1)N1CCCOC1 [Compound 29a, (E)-3-(4-Nitrophenyl)-1-(1,3-oxazinan-3-yl)prop-2-en-1-one]
- TGase inhibitory activity (in words) [1]: little inhibitory potency
- IC50 [1, 8]: > 50 µM
- IC50 [1, 9]: > 200 µM

Structure (SMILES): O=C(/C=C/c1ccc([N+](=O)[O-])cc1)c1cccnc1 [Compound 30a, (E)-3-(4-nitrophenyl)-1-(pyridin-3-yl)prop-2-en-1-one]
- TGase inhibitory activity (in words) [1]: as effective as the benzotriazolyl amide inhibitors
- IC50 [1, 4]: 20 to 50 µM
- IC50 [1, 5]: 21 µM

Structure (SMILES): Nc1ccc(/C=C/C(=O)c2cccnc2)cc1 [Compound 30r, (E)-3-(4-aminophenyl)-1-(pyridin-3-yl)prop-2-en-1-one]
- TGase inhibitory activity (in words) [1]: as effective as the benzotriazolyl amide inhibitors
- IC50 [1, 4]: > 50 µM
- IC50 [1, 5]: 148 µM
- loss of potency (fold) ([1]; relative to p-nitro azachalcone 30a): 5 fold

Structure (SMILES): CC(=O)Nc1ccc(/C=C/C(=O)c2cccnc2)cc1 [Compound 30t, (E)-3-(4-acetylaminophenyl)-1-(pyridin-3-yl)prop-2-en-1-one]
- TGase inhibitory activity (in words) [1]: as effective as the benzotriazolyl amide inhibitors
- IC50 [1, 4]: 20 to 50 µM
- IC50 [1, 5]: 28 µM

Structure (SMILES): O=C(/C=C/c1ccc([N+](=O)[O-])cc1)c1ccccc1 [Compound 31a, reference compound]
- TGase inhibitory activity (in words) [1]: lack of activity

Structure (SMILES): O=C(OCc1ccc([N+](=O)[O-])cc1)n1nnc2ccccc21 [Compound 32a, p-Nitrobenzyloxycarbonylbenzotriazole]
- TGase inhibitory activity (in words) [1]: significant loss of activity
- IC50 [1, 6]: > 50 µM
- IC50 [1, 7]: > 200 µM

Structure (SMILES): O=C(CCc1ccc([N+](=O)[O-])cc1)n1nnc2ccccc21 [Compound 33a, p-Nitrohydrocinnamoyl benzotriazolylamide]
- TGase inhibitory activity (in words) [1]: significant loss of activity
- IC50 [1, 6]: > 50 µM
- IC50 [1, 7]: > 200 µM

Structure (SMILES): O=C(c1ccc([N+](=O)[O-])cc1)n1nnc2ccccc21 [Compound 34a, p-Nitrobenzoyl benzotriazolyl amide]
- IC50 (μM) ([1]; Table 2, value in brackets or words): irreversible
- mode of inhibition ([1]; versus acyl-donor substrate): irreversible inhibitor

Structure (SMILES): O=C(/C=C/C=C/c1ccc([N+](=O)[O-])cc1)n1nnc2ccccc21 [Compound 37a, (2E,4E)-5-(4-Nitrophenyl)penta-2-4-dienoyl benzotriazolyl amide]
- TGase inhibitory activity (in words) [1]: Neither of these two extended conjugated compounds showed significant inhibition
- IC50 [1, 6]: > 50 µM
- IC50 [1, 7]: > 200 µM

Structure (SMILES): O=C(/C=C/C=C/c1ccc([N+](=O)[O-])cc1)c1cccnc1 [Compound 38a, (2E,4E)-5-(4-Nitrophenyl)-1-(pyridine-3-yl)penta-2,4-dien-1-one]
- TGase inhibitory activity (in words) [1]: Neither of these two extended conjugated compounds showed significant inhibition
